In general, Ki refers to the equilibrium dissociation constant of an inhibitor or competing ligand from its target. One may read the inhibition as the percentage by which the read-out fell short of the control. A lower inhibition goes with a weak effect.

Read-outs that look alike come from different tables or passages of the source. Where only a bound is given, the exact number is not on record here.

Assay [1] deals with T1, CB2 receptor (Homo sapiens, UniProt P34972). Kind of assay: cAMP Assay #2: Hit Hunter cAMP assay, Gi-coupled agonist activity, CB2. The assay is classed as cell-based. Details: host or cells: cAMP Hunter cell lines. The settings on record: for CB2 fold selectivity: CB1 EC50 / CB2 EC50. The protocol:
(§1) Compounds of the invention were assayed in the Hit Hunter® cAMP assay to determine Gi-coupled agonist activity on the CB1 and CB2 receptors, the results of which are provided in Table 5.
(§2) The Hit Hunter® cAMP assay monitors the activation of a GPCR via Gi and […] secondary messenger signaling in a homogenous, non-imaging assay format using a technology developed by DiscoverX called Enzyme Fragment Complementation (EFC) with β-galactosidase (β-Gal) as the functional reporter. […] ED is fused to cAMP and in the assay competes with cAMP generated by cells for binding to a cAMP-specific antibody. Active β-Gal is formed by complementation of exogenous EA to any unbound ED cAMP. Active enzymes can then convert a chemiluminescent substrate, generating an output signal detectable on a standard microplate reader.
(§3) cAMP Hunter cell lines were expanded from freezer stocks according to standard procedures. Cells were seeded in a total volume of 20 μL into white walled, 384-well microplates and incubated at 37° C. for the appropriate time prior to testing. cAMP modulation was determined using the DiscoverX Hit Hunter cAMP XS+ assay. For Gi agonist activity determination, cells were incubated with sample in the presence of EC80 forskolin to induce response (20 μM and 25 μM in the CB1 and CB2 assays, respectively). Media was aspirated from cells and replaced with 15 μL 2:1 HBSS/10 mM HEPES:cAMP XS+Ab reagent.
(§4) Intermediate dilution of sample stocks was performed to generate 4× sample in assay buffer. 5 μL of 4× compound was added to cells and incubated at 37° C. or room temperature for 30 or 60 minutes. Final vehicle concentration was 1%. Assay signal was generated through incubation with 20 μL cAMP XS+ED/CL lysis cocktail for one hour at room temperature. Microplates were read following signal generation with a PerkinElmer Envision™ instrument for chemiluminescent signal detection. Compound activity was analyzed using CBIS data analysis suite (Chem Innovation, CA). For agonist assays, percentage activity was calculated using the following formula: % Activity=100%×(1−(mean RLU of test sample−mean RLU of Max control ligand)/(mean RLU of vehicle control−mean RLU of Max control ligand). Control ligand was the non-selective CB1/CB2 agonist CP55,940.
A general note: cAMP levels reflect the balance of adenylyl cyclase and phosphodiesterase activity.

In assay [2] the target is T2, CB1 receptor (Homo sapiens, UniProt P21554). As to the kind of experiment: cAMP Assay #2: Hit Hunter cAMP assay, Gi-coupled agonist activity, CB1. The assay is classed as cell-based. Details: host or cells: PathHunter cell lines. The protocol: as §1, §2, §3, §4
Assay [3] addresses T1, CB2 receptor. Kind of assay: cell-based. Details: host or cells: cAMP Hunter cell lines. The settings on record: PathHunter agonist mode; read-out: CB2 Activity (β-Arrestin). As to the method: (§5) The PathHunter® β-Arrestin assay monitors the activation of a GPCR in a homogenous, non-imaging assay format using a technology developed by DiscoverX called Enzyme Fragment Complementation (EFC) with β-galactosidase (3-Gal) as the functional reporter. […] EA is fused to β-Arrestin and PK is fused to the GPCR of interest.
(§6) PathHunter cell lines were expanded from freezer stocks according to standard procedures. Cells were seeded in a total volume of 20 μL into white walled, 384-well microplates and incubated at 37° C. for the appropriate time prior to testing. For agonist activity determination, cells were incubated with sample to induce response. Intermediate dilution of sample stocks was performed to generate 5× sample in assay buffer. 5 μL of 5× sample was added to cells and incubated at 37° C. or room temperature for 90 to 180 minutes. Vehicle concentration was 1%. Assay signal was generated through a single addition of 12.5 or 15 μL (50% v/v) of PathHunter Detection reagent cocktail, followed by a one hour incubation at room temperature. Microplates were read following signal generation with a PerkinElmer Envision™ instrument for chemiluminescent signal detection. Compound activity was analyzed using CBIS data analysis suite (ChemInnovation, CA). For agonist assays, percentage activity was calculated using the following formula: % Activity=100%×(mean RLU of test sample− mean RLU of vehicle control)/(mean MAX control ligand− mean RLU of vehicle control).

Assay [4] addresses T2, CB1 receptor. As to the kind of experiment: CB1 competitive radioligand binding assay ([3H] SR141716A). More on the design: expressed in transfected cells; host or cells: Chem-1 cells. The settings on record: for inhibition at 0.5 µM: 0.5 μM compound, 2.0 nM [3H] SR141716A, 90 min 37° C. As to the method: (§7) J Med Chem. 41(26): 5177-5187 (1998); and Munro S., et al. Molecular characterization of a peripheral receptor for cannabinoids. Nature 365:61-65 (1993).
CB1 Radioligand Binding Assay: A compound of the invention (0.5 μM in 1% DMSO) was incubated with Chem-1 cells expressing human recombinant CB1 receptor in buffer (50 mM HEPES, pH 7.4, 5 mM MgCl2, 1 mM CaCl2, 0.2% BSA) for 90 minutes at 37° C. in the presence of 2.0 nM [H^3] SR141716A (CB1 radioligand). % Inhibition was determined as a function of radioligand binding to the CB1 receptor.

Assay [5] concerns the target T2, CB1 receptor. As to the kind of experiment: cell-based. Details: host or cells: PathHunter cell lines. As to the method:
as §5, §6

Assay [6] has as its target T1, CB2 receptor. Kind of assay: CB2 competitive radioligand binding assay ([3H] WIN-55,212-2). More on the design: expressed in transfected cells; host or cells: CHO-K1 cells. The settings on record: for inhibition at 0.05 µM: 0.05 μM compound, 2.4 nM [3H] WIN-55,212-2, 90 min 37° C. As to the method:
as §7
CB2 Radioligand Binding Assay: A compound of the invention (0.05 μM in 1% DMSO) was incubated with CHO-K1 cells expressing human recombinant CB2 receptor in buffer (20 mM HEPES, pH 7.0, 0.5% BSA) for 90 minutes at 37° C. in the presence of 2.4 nM [H^3] WIN-55,212-2 (CB2 radioligand). % Inhibition was determined as a function of radioligand binding to the […].

Setting [7] is: PathHunter agonist mode, read-out: CB1 Activity (β-Arrestin).
The mark [8] stands for this setting: Hit Hunter cAMP, 25 μM forskolin, control ligand CP55,940, read-out: CB2, EC50.
[9] abbreviates: Hit Hunter cAMP, 20 μM forskolin, control ligand CP55,940, read-out: CB1, EC50.
The mark [10] stands for this setting: Table 2, read-out: CB1 Binding Ki.
Setting [11] is: Table 2, read-out: CB2 Binding Ki.

T1 sequence (P34972 whole entry): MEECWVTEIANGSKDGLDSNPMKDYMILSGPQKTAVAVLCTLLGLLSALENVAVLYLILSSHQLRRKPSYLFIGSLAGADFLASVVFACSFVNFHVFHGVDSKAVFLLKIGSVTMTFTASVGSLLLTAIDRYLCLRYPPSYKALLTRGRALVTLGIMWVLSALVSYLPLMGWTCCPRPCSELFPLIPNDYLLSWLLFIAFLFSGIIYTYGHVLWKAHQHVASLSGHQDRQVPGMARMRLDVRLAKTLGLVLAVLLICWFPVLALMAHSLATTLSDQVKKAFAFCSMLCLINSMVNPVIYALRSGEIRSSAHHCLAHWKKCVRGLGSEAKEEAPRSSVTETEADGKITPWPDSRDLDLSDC
T2 sequence (P21554 whole entry, the tested form may be a part): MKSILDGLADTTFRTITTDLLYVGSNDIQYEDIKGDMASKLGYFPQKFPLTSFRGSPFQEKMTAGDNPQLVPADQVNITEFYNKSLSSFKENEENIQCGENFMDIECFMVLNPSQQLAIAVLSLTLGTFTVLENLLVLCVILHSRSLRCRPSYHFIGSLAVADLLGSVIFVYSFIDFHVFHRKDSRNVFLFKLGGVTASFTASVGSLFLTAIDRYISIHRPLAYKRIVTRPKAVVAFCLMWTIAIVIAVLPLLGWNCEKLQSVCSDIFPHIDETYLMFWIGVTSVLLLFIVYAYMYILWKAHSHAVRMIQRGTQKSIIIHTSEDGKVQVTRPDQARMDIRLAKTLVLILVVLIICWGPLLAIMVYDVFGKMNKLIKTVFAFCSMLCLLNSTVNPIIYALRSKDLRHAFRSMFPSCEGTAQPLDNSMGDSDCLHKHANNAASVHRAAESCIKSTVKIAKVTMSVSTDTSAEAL

As to `CCCCCCC(C)(C)c1cc(O)c2c(c1)OC(C)(C)[C@@H]1CC=C(C(=O)NO)C[C@@H]21` [Compound 105, (6aR,10aR)-N,1-dihydroxy-6,6-dimethyl-3-(2-methyloctan-2-yl)-6a,7,10,10a-tetrahydro-6H-benzo[c]chromene-9-carboxamide], the EC50 on CB2 receptor [1] is 11.2 nM; on CB1 receptor [2], 11.4 nM; on CB2 receptor [3], 3.7 nM; at CB1 receptor [5], 75.6 nM. The CB2 fold selectivity at CB2 receptor [1] (Hit Hunter cAMP) is given as 1.0. The Ki at CB1 receptor [4] is 9.2 nM; at CB2 receptor [6] it was 24.1 nM. The “Fold Selectivity (CB1/CB2)” value at CB2 receptor [6] (Table 3, ratio of Ki CB1/CB2) is recorded as 0.4.

`CCCCCCC(C)(C)c1cc(O)c2c(c1)OC(C)(C)[C@@H]1CC=C(C(=O)NN3CCCCC3)C[C@@H]21` [Compound 48, (6aR,10aR)-1-hydroxy-6,6-dimethyl-3-(2-methyloctan-2-yl)-N-(piperidin-1-yl)-6a,7,10,10a-tetrahydro-6H-benzo[c]chromene-9-carboxamide]: the EC50 is 7 nM on CB2 receptor [1], above 3000 nM on CB1 receptor [2], 4.4 nM at CB2 receptor [3] and above 3000 nM on CB1 receptor [5]. The CB2 fold selectivity on CB2 receptor [1] (Hit Hunter cAMP) was above 428. The results for the Ki on CB1 receptor [4] and on CB2 receptor [6] were 233 nM and 9.2 nM, respectively. In addition, the “Fold Selectivity (CB1/CB2)” value at CB2 receptor [6] (Table 3, ratio of Ki CB1/CB2) is 25.3.

In the case of `CCCCCCC(C)(C)c1cc(O)c2c(c1)OC(C)(C)[C@@H]1CC=C(C(=O)N[C@H]3C[C@@H](O)C3)C[C@@H]21` [Compound 46, (6aR,10aR)-1-hydroxy-N-((1 S,3S)-3-hydroxycyclobutyl)-6,6-dimethyl-3-(2-methyloctan-2-yl)-6a,7,10,10a-tetrahydro-6H-benzo[c]chromene-9-carboxamide], the EC50 on CB2 receptor [1] was 8.4 nM; on CB1 receptor [2], 263 nM; on CB2 receptor [3], 3.6 nM; at CB1 receptor [5], 6000 nM. The same molecule had a CB2 fold selectivity on CB2 receptor [1] (Hit Hunter cAMP) of 31.4. Also, the results for the Ki at CB1 receptor [4] and on CB2 receptor [6] were 90.3 nM and 22.9 nM, respectively. Also, the “Fold Selectivity (CB1/CB2)” value on CB2 receptor [6] (Table 3, ratio of Ki CB1/CB2) stood at 3.9.

As for `CC(C)(CCCCCCO)c1cc(O)c2c(c1)OC(C)(C)[C@@H]1CC=C(C(=O)O)C[C@@H]21` [Compound 57, (6aR,10aR)-1-hydroxy-3-(8-hydroxy-2-methyloctan-2-yl)-6,6-dimethyl-6a,7,10,10a-tetrahydro-6H-benzo[c]chromene-9-carboxylic acid], the EC50 on CB2 receptor [1] turned out to be 39.7 nM; at CB1 receptor [2], 92.1 nM; on CB2 receptor [3], 22 nM; at CB1 receptor [5] (setting [7]), 290 nM. At CB2 receptor [1] (Hit Hunter cAMP), this molecule yielded a CB2 fold selectivity of 2.3. Besides, the Ki at CB1 receptor [4] worked out at 162 nM; on CB2 receptor [6] it was 56.3 nM. Further, at CB2 receptor [6] (Table 3, ratio of Ki CB1/CB2), the “Fold Selectivity (CB1/CB2)” value is reported as 2.9.

Consider `CCCCCCC(C)(C)c1cc(O)c2c(c1)OC(C)(C)[C@@H]1CC=C(C(=O)NOCCO)C[C@@H]21` [Compound 41], for which the EC50 on CB2 receptor [1] (setting [8]) was found to be 1.5 nM; at CB1 receptor [2] (setting [9]), 6.3 nM; at CB2 receptor [3], 1.8 nM; on CB1 receptor [5] (setting [7]) it was 37.8 nM. For the same molecule, the CB2 fold selectivity on CB2 receptor [1] (Hit Hunter cAMP) was found to be 4.3. The Ki was 27.4 nM at CB1 receptor [4] (Table 3, read-out: Ki CB1) and 4.3 nM on CB2 receptor [6] (Table 3, read-out: Ki CB2). Moreover, the “Fold Selectivity (CB1/CB2)” value at CB2 receptor [6] (Table 3, ratio of Ki CB1/CB2) was determined as 6.4.

On to `CCCCCCC(C)(C)c1cc(O)c2c(c1)OC(C)(C)[C@@H]1CC=C(C(=O)NC3CCCCC3)C[C@@H]21` [Compound 16, (6aR,10aR)—N-Cyclohexyl-1-hydroxy-6,6-dimethyl-3-(2-methyloctan-2-yl)-6a,7,10,10a-tetrahydro-6H-benzo[c]chromene-9-carboxamide], for which the EC50 was 2.7 nM on CB2 receptor [1] (setting [8]), above 3000 nM on CB1 receptor [2] (setting [9]), 5 nM on CB2 receptor [3] and above 3000 nM at CB1 receptor [5] (setting [7]). The CB2 fold selectivity at CB2 receptor [1] (Hit Hunter cAMP) is reported as above 1000. Also, the inhibition at 0.5 µM at CB1 receptor [4] is 84%. The Ki at CB1 receptor [4] (setting [10]) was 94 nM; on CB2 receptor [6] (setting [11]), 26 nM. Also, testing at 0.05 µM on CB2 receptor [6] gave an inhibition of 57%. For the same molecule, the “Fold Selectivity (CB1/CB2)” value on CB2 receptor [6] (Table 2, ratio of Ki CB1/CB2) was determined as 4.

Turning to `CCCCCCC(C)(C)c1cc(O)c2c(c1)OC(C)(C)[C@@H]1CC=C(C(=O)NOC)C[C@@H]21` [Compound 107], the values for the EC50 at CB2 receptor [3] and on CB1 receptor [5] (setting [7]) were 2.9 nM and 49.4 nM, respectively. For the same molecule, the Ki was 36.2 nM on CB1 receptor [4] and 4.9 nM at CB2 receptor [6]. In addition, on CB2 receptor [6] (Table 3, ratio of Ki CB1/CB2), the “Fold Selectivity (CB1/CB2)” value was found to be 7.4.

Take `CCCCCCC(C)(C)c1cc(O)c2c(c1)OC(C)(C)[C@@H]1CC=C(C(=O)NCC(=O)O)C[C@@H]21` [Compound 1, ((6aR,10aR)-1-Hydroxy-6,6-dimethyl-3-(2-methyloctan-2-yl)-6a,7,10,10a-tetrahydro-6H-benzo[c]chromene-9-carbonyl)glycine]: the EC50 on CB2 receptor [3] was 58 nM; at CB1 receptor [5] (setting [7]), above 3000 nM. The molecule further showed an inhibition at 0.5 µM on CB1 receptor [4] of 10%. Further, the Ki on CB1 receptor [4] (setting [10]) is above 3000 nM; on CB2 receptor [6] (setting [11]), 1310 nM. At CB2 receptor [6], testing at 0.05 µM gave an inhibition of 4%.

For `CCCCCCC(C)(C)c1cc(O)c2c(c1)OC(C)(C)[C@@H]1CC=C(C(=O)NCCC(=O)O)C[C@@H]21` [Compound 26, 3-((6aR,10aR)-1-Hydroxy-6,6-dimethyl-3-(2-methyloctan-2-yl)-6a,7,10,10a-tetrahydro-6H-benzo[c]chromene-9-carboxamido)propanoic acid], the EC50 on CB2 receptor [3] and at CB1 receptor [5] (setting [7]) was above 3000 nM throughout. The molecule also gave an inhibition at 0.5 µM on CB1 receptor [4] of 9%. Besides, on CB2 receptor [6], the inhibition at 0.05 µM turned out to be 2%.

The values are drawn from US20210284621A1 (priority 2018, published 2021).
